Test results reported in patent US20180112258A1, “MEDICAL USES AND METHODS FOR TREATING CANCER USING MONOPOLAR SPINDLE 1 (MPS1) KINASE INHIBITORS” (THE INSTITUTE OF CANCER RESEARCH: ROYAL CANCER HOSPITAL, priority 2015, published 2018).
Numbering of substitutions follows the chain as printed. Read-outs that look alike come from different tables or passages of the source.

Columns and labels:
[1] = test system: taxol or nocodazole-induced SAC; assay: Abrogation of taxol or nocodazole-induced SAC (mitotic index, MPM2 staining and flow cytometry); assay type: cell-based; details: within 1 hour following inhibitor treatment; 0.6 μM CCT251455
Procedure: (§1) Cells were fixed overnight at −20° C. in 70% ethanol, washed in PBS, then incubated in 10 μg/ml propidium iodide and 0.5% RNase (Sigma) for 30 min and then analysed using LSRII flow cytometer (BD Biosciences). To stain for mitosis, cells were incubated for 1 hour at 4° C. with anti-MPM2 antibodies (Millipore, 05-368), then 1 hour at 4° C. with FITC-conjugated secondary antibodies (Life technology).

[2] = test system: kinetochore localisation of SAC proteins in HeLa cells; assay: Immunofluorescence of kinetochore proteins in HeLa cells; assay type: cell-based
Procedure: (§2) For analysis by immunofluorescence, cells were fixed in 1% formaldehyde for 5 min at room temperature, quenched in glycine, washed in PBS-Triton X-100 (0.1% PBS-T) and incubated for 1 hour in primary antibodies in PBS-T: MAD2 (Bethyl Laboratories Inc., A300-301A), CDC2020 (Millipore, MAB3775), MPS1 (Millipore, 05-682), MPS1 pT33pS37 (Life Technologies, 44-1325G) and ACA (ImmunoVision, HST-0100). After PBS-T washes, cells were incubated with fluorescent-conjugated secondary antibodies (Life Technologies), stained with DAPI (Life Technologies) and mounted onto slides with Vectashield (Vector Labs). Images were acquired using a Zeiss LSM 710 confocal microscope and processed using Velocity 3D Image analysis software (PerkinElmer). Time-lapse micrscopy was performed in 96-well Ibidi plate (Thistle Scientific) using a Diaphot inverted microscope (Nikon), in a humidified CO2 chamber at 37° C., using a motorized stage (Prior Scientific), controlled by Simple PCI software (Compix).

HeLa cells = assay: Time-lapse microscopy, time in mitosis and mitotic defects, HeLa; assay type: cell-based; details: 0.6 μM CCT251455
Procedure: as §2

parental HCT116 cells = assay: Flow cytometry cell cycle profiles, parental HCT116; assay type: cell-based, human
Procedure: Cells were fixed overnight at −20° C. in 70% ethanol, washed in PBS, then incubated in 10 μg/ml propidium iodide and 0.5% RNase (Sigma) for 30 min and then analysed using LSRII flow cytometer (BD Biosciences).

[3] = target: T1, recombinant full-length MPS1 p.C604W (Homo sapiens, UniProt P33981, C604W); assay: Recombinant MPS1 kinase assay (electrophoretic mobility shift), p.C604W; assay type: biochemical; details: C604W, mean ± SD, quadruplicate
T1 construct: made in house; host or cells: Sf9 insect cells (baculovirus, modified pFastBac1)
T1 sequence (P33981 1-857 C604W): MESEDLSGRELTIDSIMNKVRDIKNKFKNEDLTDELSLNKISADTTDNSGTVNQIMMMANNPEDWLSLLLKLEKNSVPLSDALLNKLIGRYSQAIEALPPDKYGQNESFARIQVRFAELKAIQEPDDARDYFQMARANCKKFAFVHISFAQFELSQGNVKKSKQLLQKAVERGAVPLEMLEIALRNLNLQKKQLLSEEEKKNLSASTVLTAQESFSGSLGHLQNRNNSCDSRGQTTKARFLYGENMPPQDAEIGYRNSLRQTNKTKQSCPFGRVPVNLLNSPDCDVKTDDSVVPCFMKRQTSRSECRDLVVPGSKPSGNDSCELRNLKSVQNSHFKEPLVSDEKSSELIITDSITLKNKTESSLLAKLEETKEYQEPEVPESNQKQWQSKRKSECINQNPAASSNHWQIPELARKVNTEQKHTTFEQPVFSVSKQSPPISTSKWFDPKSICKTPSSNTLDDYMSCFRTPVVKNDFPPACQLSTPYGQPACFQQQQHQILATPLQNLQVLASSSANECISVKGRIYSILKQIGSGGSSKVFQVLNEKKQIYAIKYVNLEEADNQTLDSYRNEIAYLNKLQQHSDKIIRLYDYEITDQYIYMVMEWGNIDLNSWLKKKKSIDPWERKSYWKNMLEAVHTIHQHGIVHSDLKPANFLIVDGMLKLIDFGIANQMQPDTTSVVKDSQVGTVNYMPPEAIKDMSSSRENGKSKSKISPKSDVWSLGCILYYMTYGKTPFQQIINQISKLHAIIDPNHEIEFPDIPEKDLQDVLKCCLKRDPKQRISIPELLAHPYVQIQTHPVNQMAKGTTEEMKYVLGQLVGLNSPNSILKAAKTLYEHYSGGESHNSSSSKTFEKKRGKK
Procedure: (§3) For high ATP concentration assays, 1 mM ATP was used. An ECHO® 550 (Labcyte Inc) acoustic dispenser was used to generate duplicate 8 point dilution curves directly into 384-well low-volume polystyrene assay plates (Corning Life Sciences). The reaction was carried out for 90 min at room temperature.

[4] = target: T2, recombinant full-length wild-type MPS1 (Homo sapiens, UniProt P33981); assay: Recombinant MPS1 kinase assay (electrophoretic mobility shift), WT; assay type: biochemical; details: mean ± SD, quadruplicate
T2 construct: For protein expression of full-length MPS1 proteins, Sf9 insect cells were grown at 27° C; made in house; host or cells: Sf9 insect cells (baculovirus, modified pFastBac1)
T2 sequence (P33981 1-857): T1 sequence (P33981 1-857 C604W) with W604C
Procedure: as §3

[5] = test system: NvR12 HCT116 cells (p.C604W); assay: Flow cytometry cell cycle profiles, NvR12; assay type: cell-based, human; details: NvR12, 24 hours
Procedure: as §1

[6] = ATP at Km, read-out: IC50 values at ATP Km
[7] = IC50 values at 1 mM ATP, 1 mM ATP

SMILES	cells that had exited mitosis [1]	MPS1 kinetochore localisation ([2]; 0.6 μM CCT251455)	MPS1 pT33/S37 and pT676 signals ([2]; 0.6 μM CCT251455)	kinetochore recruitment of BUB1 and BUBR1 ([2]; 0.6 μM CCT251455)	kinetochore recruitment of MAD2, MAD1, ZW10 and CDC20 ([2]; 0.6 μM CCT251455)	kinetochore localisation of ZWINT-1, CENP-E, CENP-F and CENP-A pS7 ([2]; controls)	cells with unaligned chromosomes (HeLa cells)	time to exit mitosis (HeLa cells)	concentration at which cell cycle profiles were abolished (parental HCT116 cells; HCT116, 24 hour treatment)	IC50 [3, 6]	IC50 [3, 7]	IC50 [4, 6]	IC50 [4, 7]	concentration causing loss of cell cycle profiles [5]	concentration causing loss of cell cycle profiles (parental HCT116 cells; parental, 24 hours)
Cn1cc(-c2cc3cnc(Nc4ccc(-c5cncn5C)cc4Cl)cc3n2C(=O)OC(C)(C)C)cn1 [CCT251455, Tert-Butyl 6-(2-Chloro-4-(1-methyl-1H-imidazol-5-yl)phenylamino)-2-(1-methyl-1H-pyrazol-4-yl)-1H-pyrrolo[3,2-c]pyridine-1-carboxylate]	~100%	increased	no longer visible	reduced, but still visible by microscopy	severely inhibited	remained unaffected	98%	~17 min	0.32 µM	–	–	–	–	–	–
Cc1ncc(-c2ccc(Nc3cc4c(cn3)cc(-c3cnn(C)c3)n4C(=O)OC(C)C)cc2)n1C [Compound 2, Isopropyl 6-(4-(1,2-dimethyl-1H-imidazol-5-yl)-2-phenylamino)-2-(1-methyl-1H-pyrazol-4-yl)-1H-pyrrolo[3,2-c]pyridine-1-carboxylate]	–	–	–	–	–	–	–	–	–	13.3 ± 2.9 nM	16.3 ± 4 nM	3.3 ± 1.1 nM	60 ± 20 nM	100 nM	600 nM
